Tests used:
[1] = Metabolite analysis in pig plasma; type: in vivo, pigs
Experimental: To control the quality of the K[^18F]F-Kryptofix®222/K2CO3-complex, reactions using ethylene glycol ditosylate were performed randomly. Radio-TLC of [^18F]10a and [^18F]10b was performed on Polygram® ALOX N/UV254 plates (Macherey-Nagel GmbH & Co. KG) with dichloromethane/methanol (9:1, v/v). The spots of the references were visualized using UV light at 254 nm.
Arterial blood was sampled using a peristaltic pump during the first 20 min of the scan followed by manual sampling at 25, 30, 40, 50, 60, 90, 120, 150, 180, 210, and 240 min after injection. Plasma was obtained by centrifugation (13,000 rpm, 2 min at 21 °C) and total radioactivity concentration was measured using a gamma-counter (1470 Wizard; PerkinElmer, Shelton, CT, USA) cross-calibrated to the PET scanner. […]
The plasma input function was corrected for the presence of radioactive metabolites by determination of the parent fraction as described previously. Plasma samples were de-proteinized by addition of ice-cold acetonitrile (500 μL MeCN/100 μL plasma) followed by centrifugation (13,000 rpm, 10 min). Aliquots of the original plasma sample and of the supernatant obtained after centrifugation were counted for radioactivity, and the supernatant was analyzed by radio-HPLC following the chromatographic methods described in quality control. The parent fraction as a function of time was fitted iteratively with the Levenberg-Marquardt algorithm, including decay correction, to calculate metabolite corrected input function.

[2] = In vitro radiochemical stability; type: physicochemical; details: 40 °C, up to 90 min
Experimental: (§1) in vitro radiochemical stability of [^18F]10a was investigated in 0.9% NaCl solution, PBS (pH 7.2), and 0.01 M Tris-HCl (pH 7.4 at 21 °C) at 40 °C and in EtOH at room temperature for up to 90 min. Samples were taken at 15, 30, 60, and 90 min of incubation time and analyzed by radio-TLC and radio-HPLC. Log D7.2 of [^18F]10a was experimentally determined in n-octanol/phosphate-buffered saline (PBS; 0.01 M, pH 7.2) at room temperature by the shake-flask method in multiple distribution. Measurement was performed twice in triplicate.

[3] = Distribution coefficient, shake-flask method, n-octanol/PBS; type: physicochemical; details: n-octanol/phosphate-buffered saline; n-octanol-PBS, pH 7.2, shake-flask, n = 3; read-out: log D7.2
Experimental: as §1

α7 nAChR = molecular target: T1, α7 nAChR (Macaca mulatta, UniProt Q866A2); experiment: Comparative PET study in a rhesus monkey; type: in vivo, rhesus monkey (Macaca mulatta)
T1 construct: from tissue; host or cells: brain of a living rhesus monkey
Experimental: One male rhesus monkey (Macaca mulatta, 6 years old, body weight = 10 kg) underwent two PET imaging sessions with [^18F]10a and [^18F]10b, respectively. The scans were conducted 19 days apart. The monkey was initially sedated by intramuscular ketamine at 10 mg∙kg^−1 at ~2 h before the PET scan and anesthetized by 1.5%–3% isoflurane throughout the imaging session. PET scan was performed using a FOCUS-220 PET scanner (Siemens Preclinical Solutions, Knoxville, TN, USA). After a transmission scan, 167 MBq of [^18F]10a (specific activity of 362 GBq∙μmol^−1) or 185 MBq of [^18F]10b (specific activity of 159 GBq·μmol^−1) were administered intravenously. Emission data were acquired in list mode for 240 min. Raw list-mode PET data was histogrammed (frames of 6 × 30 s; 3 × 1 min; 2 × 2 min; 46 × 5 min to scan termination) and reconstructed with 2D filtered back projection, using a 0.15 cm^−1 Shepp filter and including corrections for scanner normalization, detector dead time, randoms, and radiation scatter and attenuation. The PET images were then registered to MR images, acquired with a Siemens 3 T Trio scanner, with a 6-parameter rigid body registration. The MR native space was then normalized using nonlinear affine registration to a high-resolution rhesus monkey atlas using BioImage Suite 3.01 (http://www.bioimagesuite.org/index.html). Time-activity curves were extracted by mapping atlas-defined regions to PET native space using the optimal transformation matrices calculated in the registration and normalization steps. Regions extracted included amygdala, caudate, cerebellum, cingulate, cortical regions (frontal, occipital, and temporal cortex), hippocampus, putamen, thalamus, and pons.

T1 sequence (Q866A2 23-502): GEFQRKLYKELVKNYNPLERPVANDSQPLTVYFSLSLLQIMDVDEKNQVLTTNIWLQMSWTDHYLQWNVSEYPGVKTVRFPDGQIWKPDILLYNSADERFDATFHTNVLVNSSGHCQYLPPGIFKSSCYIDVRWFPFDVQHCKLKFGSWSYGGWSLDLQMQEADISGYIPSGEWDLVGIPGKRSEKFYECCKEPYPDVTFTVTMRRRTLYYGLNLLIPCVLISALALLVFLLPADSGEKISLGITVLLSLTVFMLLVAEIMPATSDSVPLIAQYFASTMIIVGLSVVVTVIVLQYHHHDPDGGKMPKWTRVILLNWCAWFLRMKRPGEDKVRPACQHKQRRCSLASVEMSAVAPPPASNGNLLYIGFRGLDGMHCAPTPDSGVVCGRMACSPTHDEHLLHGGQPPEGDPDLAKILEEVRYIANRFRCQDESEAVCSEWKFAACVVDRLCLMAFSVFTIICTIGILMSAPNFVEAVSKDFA

Which results are given for O=S1(=O)c2ccc([18F])cc2-c2ccc(N3CCN4CCC3CC4)cc21 [[^18F]10a]?
Parent fraction of total radioactivity in plasma ([1]; 2 min p.i.): 88%; Parent fraction of total radioactivity in plasma ([1]; 60 min p.i.): 24%; Parent fraction of total radioactivity in plasma ([1]; 120 min p.i.): 19%; stability in physiological solutions and organic solvents [2]: stable; logD [3]: 1.3 ± 0.1; total volume of distribution VT (α7 nAChR; cerebellum): 28.5 mL∙cm^−3; total volume of distribution VT (α7 nAChR; thalamus): 48.1 mL∙cm^−3
